Results as given in patent US20170362228A1, “TETRAHYDRO-PYRIDO[3,4-b]INDOLE ESTROGEN RECEPTOR MODULATORS AND USES THEREOF” (Genentech, Inc., priority 2016, published 2017).
Like-named read-outs stand apart in the source and are kept apart here.

Columns and labels:
immature rat uterus = assay: Immature Uterine Wet Weight Assay, agonist mode (Example 906); type: in vivo; settings: dosed PO, QD×3
Protocol: Female immature CD-IGS rats (21 days old upon arrival) are treated for three days. Animals are dosed daily for three days. For Antagonist Mode, Vehicle or test compound is administered orally by gavage followed 15 minutes later by an oral dose of 0.1 mg/kg Ethynyl Estradiol. For Agonist Mode, Vehicle or test compound is administered orally by gavage. On the fourth day 24 hours after dose, plasma is collected for pharmacokinetic analysis. Immediately following plasma collection, the animals are euthanized and the uterus removed and weighed.
Uteri and ovaries from 2 animals per group are fixed in 10% neutral buffered formalin and paraffin embedded, sectioned and stained for H&E (SDPath). Stained tissues are analyzed and read by a board certified pathologist. […]
Mice were treated with Formula I compounds (1R,3R)-1-(2,6-difluoro-4-((1-(3-fluoropropyl)azetidin-3-yl)oxy)phenyl)-2-(2-fluoro-2-methylpropyl)-3-methyl-2,3,4,9-tetrahydro-1H-pyrido[3,4-b]indole 101 and (1R,3R)-1-(2,6-difluoro-4-(2-(3-(fluoromethyl)azetidin-1-yl)ethoxy)phenyl)-2-(2-fluoro-2-methylpropyl)-3-methyl-2,3,4,9-tetrahydro-1H-pyrido[3,4-b]indole 102, tamoxifen, fulvestrant, AZD9496 (WO 2014/191726, Example 1, page 74; U.S. Pat. No. 9,155,727), and two controls: Vehicle and Vehicle plus ethynyl estradiol (EE). […] Uterine Wet Weight (UWW): Body Weight ratios were calculated. […]

MCF7 cells = assay: In vitro cell proliferation assays (Examples 902 and 903), MCF7; type: cell-based; settings: read-out: ER-alpha MCF7 HCS (EC50)
[1] = biological target: T1, estrogen receptor alpha (ESR1) (Homo sapiens, UniProt P03372); assay: Breast Cancer Cell ERa High Content Fluorescence Imaging Degradation Assay (Example 901); type: cell-based; settings: Table 1b; MCF7 breast cancer cells, 4 hours; plateau of the maximal effect
T1 construct: endogenous in cells; host or cells: MCF7 breast cancer cells
T1 sequence (P03372 1-595): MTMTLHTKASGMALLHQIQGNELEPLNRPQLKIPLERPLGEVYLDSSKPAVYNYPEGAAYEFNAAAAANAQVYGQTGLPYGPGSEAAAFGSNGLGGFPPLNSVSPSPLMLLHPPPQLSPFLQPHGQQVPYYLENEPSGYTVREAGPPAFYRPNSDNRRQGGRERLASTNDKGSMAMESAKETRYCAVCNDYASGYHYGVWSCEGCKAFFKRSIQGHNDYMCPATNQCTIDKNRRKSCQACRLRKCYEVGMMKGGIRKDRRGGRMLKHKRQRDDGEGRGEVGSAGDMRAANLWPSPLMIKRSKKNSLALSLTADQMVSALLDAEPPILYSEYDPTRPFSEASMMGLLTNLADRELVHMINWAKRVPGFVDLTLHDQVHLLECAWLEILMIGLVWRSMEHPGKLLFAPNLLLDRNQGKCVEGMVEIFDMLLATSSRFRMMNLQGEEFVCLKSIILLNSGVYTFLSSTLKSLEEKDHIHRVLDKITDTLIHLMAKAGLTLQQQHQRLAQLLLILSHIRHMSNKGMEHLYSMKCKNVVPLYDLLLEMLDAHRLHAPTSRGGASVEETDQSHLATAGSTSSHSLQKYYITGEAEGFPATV
Method in brief: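 MCF7 cells in phenol red-free RPMI with 10% charcoal-stripped FBS, exposed to compound at 0.05–835 nM (10-point, 1.8×, duplicate; 0.84% DMSO) for 4 h at 37 °C. Fixed cells immunostained for ESR1 (F10 mAb, Alexa 488) with Hoechst nuclear mask; nuclear ESR1 intensity imaged per cell. DMSO and 5 nM fulvestrant set 0%/100%; EC50 and Sinf by robust fit.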

| EC50 (MCF7 cells; Homo sapiens, MCF7, Table 1b) [pM] | ER-alpha MCF7 HCS (S inf) [1] [%] | EC50 (MCF7 cells; Table 1b) [pM] | Compound | activity in agonist mode UWW assay (immature rat uterus) |
| --- | --- | --- | --- | --- |
| – | – | – | C[C@@H]1Cc2c([nH]c3ccccc23)[C@@H](c2c(F)cc(/C=C/C(=O)O)cc2F)N1CC(C)(C)F [AZD9496] | partial agonist |
| 740 | −84 | – | C[C@@H]1Cc2c([nH]c3ccccc23)[C@@H](c2c(F)cc([C@](C)(O)C3CN(CCCF)C3)cc2F)N1CC(F)(F)CO [Compound 155, 3-((1R,3R)-1-(2,6-difluoro-4-((R)-1-(1-(3-fluoropropyl)azetidin-3-yl)-1-hydroxyethyl)phenyl)-3-methyl-3,4-dihydro-1H-pyrido[3,4-b]indol-2(9H)-yl)-2,2-difluoropropan-1-ol] | – |
| 400 | −101 | – | C[C@@H]1Cc2c([nH]c3ccccc23)[C@@H](c2c(F)cc([C@H](F)C3CN(CCCF)C3)cc2F)N1C[C@H](F)CO [Compound 158, (S)-3-((1R,3R)-1-(2,6-difluoro-4-((R)-fluoro(1-(3-fluoropropyl)azetidin-3-yl)methyl)phenyl)-3-methyl-3,4-dihydro-1H-pyrido[3,4-b]indol-2(9H)-yl)-2-fluoropropan-1-ol] | – |
| 81 | −99 | – | C[C@@H]1Cc2c([nH]c3ccccc23)[C@@H](c2c(F)cc([C@@H](F)C3CN(CCCF)C3)cc2F)N1C[C@H](F)CO [Compound 159, (S)-3-((1R,3R)-1-(2,6-difluoro-4-((S)-fluoro(1-(3-fluoropropyl)azetidin-3-yl)methyl)phenyl)-3-methyl-3,4-dihydro-1H-pyrido[3,4-b]indol-2(9H)-yl)-2-fluoropropan-1-ol] | – |
| 130 | −97 | – | C[C@@H]1Cc2c([nH]c3ccccc23)[C@@H](c2c(F)cc([C@H](O)C3CN(CCCF)C3)cc2F)N1C[C@@H](F)CF [Compound 161] | – |
| – | −100 | 70 | C[C@@H]1Cc2c([nH]c3ccccc23)[C@@H](c2c(F)cc([C@@H](O)C3CN(CCCF)C3)cc2F)N1C[C@H](F)CF [Compound 162, (S)-(4-((1R,3R)-2-((S)-2,3-difluoropropyl)-3-methyl-2,3,4,9-tetrahydro-1H-pyrido[3,4-b]indol-1-yl)-3,5-difluorophenyl)(1-(3-fluoropropyl)azetidin-3-yl)methanol] | – |
| 200 | −102 | – | C[C@@H]1Cc2c([nH]c3ccccc23)[C@@H](c2c(F)cc([C@H](O)C3CN(CCCF)C3)cc2F)N1C[C@H](F)CF [Compound 163] | – |
| 380 | −85 | – | CO[C@@H](c1cc(F)c([C@@H]2c3[nH]c4ccc(F)cc4c3C[C@@H](C)N2CC(F)(F)CO)c(F)c1)C1CN(CCCF)C1 [Compound 164, 3-((1R,3R)-1-(2,6-difluoro-4-((R)-(1-(3-fluoropropyl)azetidin-3-yl)(methoxy)methyl)phenyl)-6-fluoro-3-methyl-3,4-dihydro-1H-pyrido[3,4-b]indol-2(9H)-yl)-2,2-difluoropropan-1-ol] | – |
| 170 | −92 | – | CO[C@H](c1cc(F)c([C@@H]2c3[nH]c4ccc(F)cc4c3C[C@@H](C)N2CC(F)(F)CO)c(F)c1)C1CN(CCCF)C1 [Compound 165, 3-((1R,3R)-1-(2,6-difluoro-4-((S)-(1-(3-fluoropropyl)azetidin-3-yl)(methoxy)methyl)phenyl)-6-fluoro-3-methyl-3,4-dihydro-1H-pyrido[3,4-b]indol-2(9H)-yl)-2,2-difluoropropan-1-ol] | – |
| 40 | −99 | – | C[C@@H]1Cc2c([nH]c3ccccc23)[C@@H](c2c(F)cc(CC3CN(CCCF)C3)cc2F)N1C[C@H](F)CO [Compound 166, (S)-3-((1R,3R)-1-(2,6-difluoro-4-((1-(3-fluoropropyl)azetidin-3-yl)methyl)phenyl)-3-methyl-3,4-dihydro-1H-pyrido[3,4-b]indol-2(9H)-yl)-2-fluoropropan-1-ol] | – |
| 108 | −89 | – | CO[C@@H](c1cc(F)c([C@@H]2c3[nH]c4ccccc4c3C[C@@H](C)N2CC(F)(F)CO)c(F)c1)C1CN(CCCF)C1 [Compound 169, 3-((1R,3R)-1-(2,6-Difluoro-4-((R)-(1-(3-fluoropropyl)azetidin-3-yl)(methoxy)methyl)phenyl)-3-methyl-3,4-dihydro-1H-pyrido[3,4-b]indol-2(9H)-yl)-2,2-difluoropropan-1-ol] | – |
| 78 | −94 | – | CO[C@H](c1cc(F)c([C@@H]2c3[nH]c4ccccc4c3C[C@@H](C)N2CC(F)(F)CO)c(F)c1)C1CN(CCCF)C1 [Compound 170, 3-((1R,3R)-1-(2,6-Difluoro-4-((S)-(1-(3-fluoropropyl)azetidin-3-yl)(methoxy)methyl)phenyl)-3-methyl-3,4-dihydro-1H-pyrido[3,4-b]indol-2(9H)-yl)-2,2-difluoropropan-1-ol] | – |
| 87 | −93 | – | C[C@@H]1Cc2c([nH]c3ccccc23)[C@@H](c2ccc([C@H](O)C3CN(CCCF)C3)c(F)c2)N1CC(F)(F)CO [Compound 171, 2,2-difluoro-3-((1R,3R)-1-(3-fluoro-4-((R)-(1-(3-fluoropropyl)azetidin-3-yl)(hydroxy)methyl)phenyl)-3-methyl-1,3,4,9-tetrahydro-2H-pyrido[3,4-b]indol-2-yl)propan-1-ol] | – |
| 51 | −101 | – | C[C@@H]1Cc2c([nH]c3ccccc23)[C@@H](c2ccc([C@@H](O)C3CN(CCCF)C3)c(F)c2)N1CC(F)(F)CO [Compound 172, 2,2-difluoro-3-((1R,3R)-1-(3-fluoro-4-((S)-(1-(3-fluoropropyl)azetidin-3-yl)(hydroxy)methyl)phenyl)-3-methyl-1,3,4,9-tetrahydro-2H-pyrido[3,4-b]indol-2-yl)propan-1-ol] | – |
| 72 | −100 | – | C[C@@H]1Cc2c([nH]c3ccccc23)[C@@H](c2ccc([C@H](O)C3CN(CCCF)C3)c(F)c2F)N1CC(F)(F)CO [Compound 173, 3-((1R,3R)-1-(2,3-difluoro-4-((R)-(1-(3-fluoropropyl)azetidin-3-yl)(hydroxy)methyl)phenyl)-3-methyl-1,3,4,9-tetrahydro-2H-pyrido[3,4-b]indol-2-yl)-2,2-difluoropropan-1-ol] | – |
| 71 | −97 | – | C[C@@H]1Cc2c([nH]c3ccccc23)[C@@H](c2ccc([C@@H](O)C3CN(CCCF)C3)c(F)c2F)N1CC(F)(F)CO [Compound 174, 3-((1R,3R)-1-(2,3-difluoro-4-((S)-(1-(3-fluoropropyl)azetidin-3-yl)(hydroxy)methyl)phenyl)-3-methyl-1,3,4,9-tetrahydro-2H-pyrido[3,4-b]indol-2-yl)-2,2-difluoropropan-1-ol] | – |
| 630 | −96 | – | COc1cc([C@@H]2c3[nH]c4ccccc4c3C[C@@H](C)N2CC(F)(F)CO)ccc1[C@H](O)C1CN(CCCF)C1 [Compound 175, 2,2-difluoro-3-((1R,3R)-1-(4-((R)-(1-(3-fluoropropyl)azetidin-3-yl)(hydroxy)methyl)-3-methoxyphenyl)-3-methyl-1,3,4,9-tetrahydro-2H-pyrido[3,4-b]indol-2-yl)propan-1-ol] | – |
| 5800 | −81 | – | COc1cc([C@@H]2c3[nH]c4ccccc4c3C[C@@H](C)N2CC(F)(F)CO)ccc1[C@@H](O)C1CN(CCCF)C1 [Compound 176, 2,2-difluoro-3-((1R,3R)-1-(4-((S)-(1-(3-fluoropropyl)azetidin-3-yl)(hydroxy)methyl)-3-methoxyphenyl)-3-methyl-1,3,4,9-tetrahydro-2H-pyrido[3,4-b]indol-2-yl)propan-1-ol] | – |
